Key:
MOLT-4 = assay: Cell viability (CellTiter Glo), compressed perturbation pools with informed pool design, MAX-based deconvolution, MOLT-4; conditions: for DRS: MOLT-4, None (measured individually), informed pool design table; for DRS from MAX-based deconvolution: MOLT-4, Samples, 7 Pick 3 informed perturbation pools; for DRS, MOLT-4, MAX: compressed perturbation pools, informed pool design, MAX-based deconvolution;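 as to DRS from MAX-based deconvolution: higher DRS means a larger drug effect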
Procedure, shortened: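 Per-drug DRS recovered by MAX deconvolution, which assumes the strongest pool member masks the rest; after ranking, each drug in turn takes the DRS of the lowest-signal pool containing it, and leftovers score zero. Pools built from drug class and known toxic combinations; dose-response spans 1 nM to 10 μM, read by ATP-based luminescence.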

REH [1] = assay: Cell viability (CellTiter Glo), library of cancer drugs, individual or sample compression with randomized (alphabetical) pools, REH; assay type: cell-based; conditions: REH; for DRS: None (measured individually); for DRS from deconvolution: Samples, 7 Pick 3 randomized (alphabetical) sample pools
Procedure, shortened: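 Cells cultured with each drug individually at 1 nM–10 μM; viability by ATP luminescence (CellTiter Glo) to build dose-response curves and DRS. Samples read singly or pooled alphabetically (each drug in 3 of 7 pools), with pooled DRS recovered by additivity-based SUM deconvolution.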

REH [2] = assay: ATP-based luminescence cell viability (CellTiter Glo), drug response score, REH; design: scale not given here; conditions: for DRS from deconvolution: Target compression; for DRS, REH, None: no compression (individual drug)
Source text: As part of a screen, a drug could be screened at different concentrations ranging from a lowest concentration to a highest concentration. In such a scenario, multiple data structures may be obtained by the screening platform 210. […] With these multiple data structures, the analysis module 218 can generate a dose-response curve that describes the magnitude of the response of the biological target, as a function of exposure to different concentrations of the drug. Further, the analysis module 218 can calculate a metric that is indicative of the response of the biological target. In the event that the biological target is one of multiple biological targets that are introduced to the pools of drugs, the metric can be used by the screening platform 210 to better understand the relative magnitude of responses. One example of a metric is drug-response score (“DRS”). DRS can be calculated as a continuous function of multiple parameters of the non-linear dose-response curve, including the slope at the half-maximal effective concentration (also called “EC50”) and the top and bottom asymptotes of the dose-response curve. DRS can be calculated as follows: […]
where y is a continuous function of the variable dose x, a is the maximal response (i.e., the top asymptote of the curve), b is the slope of the curve, c is the IC50 (i.e., half-maximal inhibitory concentration), and d is the minimal response (i.e., the bottom asymptote of the curve). Other examples of metrics include those output by sigmoidal and Hill slide functions that, like DRS, incorporate multiple aspects of the dose-response curve into a continuous function.
Total cell viability was measured for each cancer cell line using an Adenosine TriPhosphate (“ATP”) assay, and more specifically an ATP-based luminescence assay (i.e., CellTiter Glo). Each cancer drug was screened at multiple concentrations ranging from one nanomolar (nM) to ten micromolar (UM) in order to generate a dose-response curve and calculate a drug response score (“DRS”) for each cancer cell line. The DRS was calculated as a continuous function of multiple parameters of the non-linear dose-response curve, including the slope at the half-maximal effective concentration (also called “EC50”) and the top and bottom asymptotes of the dose-response curve. […] After total cell viability was measured and DRS was calculated, the DRS of each cancer cell line in the pool was deconvolved for each cancer drug.
DRS for these anchor cell lines are bolded and italicized. Anchors can be identified based on frequency of the cell lines in pools with high DRS versus low DRS. At a high level, an anchor is predicted to be the cell line with the lowest individual DRS. In order to deconvolute individual cell line DRS values from pool DRS values, the anchor can start with an assumed DRS value of zero. Each pool can then be expressed as a polynomial of variables (cell lines in the pool) and constants (DRS value of the pool). The DRS value of each cell line can then be solved for using the anchor value and overlapping polynomial expressions. When multiple values are calculated for the final target solved from the polynomials, then the anchor has a non-zero value that can be determined based on the difference in the calculated value of the final target.
Each pool represented a co-culture of three cell lines (“Target Compression”).

COc1c(OCCCN2CCOCC2)ccc2c1N=C(NC(=O)c1cnc(N)nc1)N1CCN=C21 [Copanlisib]
DRS (MOLT-4): 0.03 | DRS from MAX-based deconvolution (MOLT-4): 0.03 | DRS (REH [1]): 12.67 | DRS from deconvolution (REH [1]): 12.51 | DRS from deconvolution (REH [2]; 5 Pick 3 pools): 12.96 | DRS from deconvolution (REH [2]; 6 Pick 3 pools): 13.28 | DRS from deconvolution (REH [2]; 7 Pick 3 pools): 12.09

COc1cc2ncnc(Nc3ccc(F)c(Cl)c3)c2cc1OCCCN1CCOCC1 [Gefitinib]
DRS (MOLT-4): 0.00 | DRS from MAX-based deconvolution (MOLT-4): 0.00 | DRS, MOLT-4, MAX (MOLT-4): 0.00 | DRS (REH [1]): 5.66 | DRS from deconvolution (REH [1]): 5.59 | DRS, REH, None (REH [2]): 3.15

N#Cc1ccnc(N2C(=O)CC[C@H]2C(=O)N(c2cncc(F)c2)[C@H](C(=O)NC2CC(F)(F)C2)c2ccccc2Cl)c1 [Ivosidenib]
DRS (MOLT-4): 1.12 | DRS from MAX-based deconvolution (MOLT-4): 1.96 | DRS (REH [1]): 0.37 | DRS from deconvolution (REH [1]): 0.00 | DRS from deconvolution (REH [2]; 5 Pick 3 pools): 0.53 | DRS from deconvolution (REH [2]; 6 Pick 3 pools): 0.58 | DRS from deconvolution (REH [2]; 7 Pick 3 pools): 0.49

C=CC(=O)Nc1cc(Nc2nccc(-c3cn(C)c4ccccc34)n2)c(OC)cc1N(C)CCN(C)C [Osimertinib]
DRS (MOLT-4): 0.10 | DRS from MAX-based deconvolution (MOLT-4): 0.00 | DRS, MOLT-4, MAX (MOLT-4): 0.00 | DRS (REH [1]): 5.84 | DRS from deconvolution (REH [1]): 6.12 | DRS, REH, None (REH [2]): 2.01

Cc1[nH]c2ccccc2c1CCNCc1ccc(/C=C/C(=O)NO)cc1 [Panobinostat]
DRS (MOLT-4): 3.01 | DRS from MAX-based deconvolution (MOLT-4): 3.24 | DRS (REH [1]): 13.34 | DRS from deconvolution (REH [1]): 13.96 | DRS from deconvolution (REH [2]; 5 Pick 3 pools): 12.12 | DRS from deconvolution (REH [2]; 6 Pick 3 pools): 12.62 | DRS from deconvolution (REH [2]; 7 Pick 3 pools): 12.90

CC1(C)CCC(CN2CCN(c3ccc(C(=O)NS(=O)(=O)c4ccc(NCC5CCOCC5)c([N+](=O)[O-])c4)c(Oc4cnc5[nH]ccc5c4)c3)CC2)=C(c2ccc(Cl)cc2)C1 [Venetoclax]
DRS (MOLT-4): 3.37 | DRS from MAX-based deconvolution (MOLT-4): 3.88 | DRS, MOLT-4, MAX (MOLT-4): 3.41 | DRS (REH [1]): 3.91 | DRS from deconvolution (REH [1]): 4.05 | DRS from deconvolution (REH [2]; 5 Pick 3 pools): 1.56 | DRS from deconvolution (REH [2]; 6 Pick 3 pools): 3.18 | DRS from deconvolution (REH [2]; 7 Pick 3 pools): 1.88

Reference: US20260378560A1, “APPROACHES TO DESIGNING AND PERFORMING COMPRESSED BIOLOGICAL EXPERIMENTS AND SYSTEMS FOR IMPLEMENTING THE SAME” (EXVIVO LABS INC., priority 2023, published 2026)
